# From patent publication US20240383901A1, “SUBSTITUTED PYRROLO[2,3-D]PYRIMIDINES, THEIR PREPARATION AND THEIR THERAPEUTIC APPLICATION” (SANOFI, priority 2021, published 2024)
# What was measured:
# Type in all cases: biochemical
# LRRK2 = LRRK2 (Homo sapiens, UniProt Q5S007); assay: LRRK2 WT assay (Assay B, radiometric 33P-ATP filter binding); details: Assay B (values marked *)
# Method: LRRK2(human) is incubated with 50 mM HEPES pH 8.0, 0.2 mM EDTA, 0.01% Brij-35, 1% (w/v) BSA, 5 mM DTT, 250 Mm […], 10 mM Magnesium acetate and [[…]]-ATP (specific activity and concentration as required).
# The reaction is initiated by the addition of the Mg/ATP mix.
# full-length LRRK2 G2019S = molecular target: T1, full-length LRRK2 G2019S (Homo sapiens, UniProt Q5S007, G2019S); assay: LRRK2-G2019S kinase activity assay (Lanthascreen TR-FRET); details: 1.1 mM ATP
# T1 construct: DYKDDDDK (FLAG)
# T1 sequence (Q5S007 whole entry G2019S): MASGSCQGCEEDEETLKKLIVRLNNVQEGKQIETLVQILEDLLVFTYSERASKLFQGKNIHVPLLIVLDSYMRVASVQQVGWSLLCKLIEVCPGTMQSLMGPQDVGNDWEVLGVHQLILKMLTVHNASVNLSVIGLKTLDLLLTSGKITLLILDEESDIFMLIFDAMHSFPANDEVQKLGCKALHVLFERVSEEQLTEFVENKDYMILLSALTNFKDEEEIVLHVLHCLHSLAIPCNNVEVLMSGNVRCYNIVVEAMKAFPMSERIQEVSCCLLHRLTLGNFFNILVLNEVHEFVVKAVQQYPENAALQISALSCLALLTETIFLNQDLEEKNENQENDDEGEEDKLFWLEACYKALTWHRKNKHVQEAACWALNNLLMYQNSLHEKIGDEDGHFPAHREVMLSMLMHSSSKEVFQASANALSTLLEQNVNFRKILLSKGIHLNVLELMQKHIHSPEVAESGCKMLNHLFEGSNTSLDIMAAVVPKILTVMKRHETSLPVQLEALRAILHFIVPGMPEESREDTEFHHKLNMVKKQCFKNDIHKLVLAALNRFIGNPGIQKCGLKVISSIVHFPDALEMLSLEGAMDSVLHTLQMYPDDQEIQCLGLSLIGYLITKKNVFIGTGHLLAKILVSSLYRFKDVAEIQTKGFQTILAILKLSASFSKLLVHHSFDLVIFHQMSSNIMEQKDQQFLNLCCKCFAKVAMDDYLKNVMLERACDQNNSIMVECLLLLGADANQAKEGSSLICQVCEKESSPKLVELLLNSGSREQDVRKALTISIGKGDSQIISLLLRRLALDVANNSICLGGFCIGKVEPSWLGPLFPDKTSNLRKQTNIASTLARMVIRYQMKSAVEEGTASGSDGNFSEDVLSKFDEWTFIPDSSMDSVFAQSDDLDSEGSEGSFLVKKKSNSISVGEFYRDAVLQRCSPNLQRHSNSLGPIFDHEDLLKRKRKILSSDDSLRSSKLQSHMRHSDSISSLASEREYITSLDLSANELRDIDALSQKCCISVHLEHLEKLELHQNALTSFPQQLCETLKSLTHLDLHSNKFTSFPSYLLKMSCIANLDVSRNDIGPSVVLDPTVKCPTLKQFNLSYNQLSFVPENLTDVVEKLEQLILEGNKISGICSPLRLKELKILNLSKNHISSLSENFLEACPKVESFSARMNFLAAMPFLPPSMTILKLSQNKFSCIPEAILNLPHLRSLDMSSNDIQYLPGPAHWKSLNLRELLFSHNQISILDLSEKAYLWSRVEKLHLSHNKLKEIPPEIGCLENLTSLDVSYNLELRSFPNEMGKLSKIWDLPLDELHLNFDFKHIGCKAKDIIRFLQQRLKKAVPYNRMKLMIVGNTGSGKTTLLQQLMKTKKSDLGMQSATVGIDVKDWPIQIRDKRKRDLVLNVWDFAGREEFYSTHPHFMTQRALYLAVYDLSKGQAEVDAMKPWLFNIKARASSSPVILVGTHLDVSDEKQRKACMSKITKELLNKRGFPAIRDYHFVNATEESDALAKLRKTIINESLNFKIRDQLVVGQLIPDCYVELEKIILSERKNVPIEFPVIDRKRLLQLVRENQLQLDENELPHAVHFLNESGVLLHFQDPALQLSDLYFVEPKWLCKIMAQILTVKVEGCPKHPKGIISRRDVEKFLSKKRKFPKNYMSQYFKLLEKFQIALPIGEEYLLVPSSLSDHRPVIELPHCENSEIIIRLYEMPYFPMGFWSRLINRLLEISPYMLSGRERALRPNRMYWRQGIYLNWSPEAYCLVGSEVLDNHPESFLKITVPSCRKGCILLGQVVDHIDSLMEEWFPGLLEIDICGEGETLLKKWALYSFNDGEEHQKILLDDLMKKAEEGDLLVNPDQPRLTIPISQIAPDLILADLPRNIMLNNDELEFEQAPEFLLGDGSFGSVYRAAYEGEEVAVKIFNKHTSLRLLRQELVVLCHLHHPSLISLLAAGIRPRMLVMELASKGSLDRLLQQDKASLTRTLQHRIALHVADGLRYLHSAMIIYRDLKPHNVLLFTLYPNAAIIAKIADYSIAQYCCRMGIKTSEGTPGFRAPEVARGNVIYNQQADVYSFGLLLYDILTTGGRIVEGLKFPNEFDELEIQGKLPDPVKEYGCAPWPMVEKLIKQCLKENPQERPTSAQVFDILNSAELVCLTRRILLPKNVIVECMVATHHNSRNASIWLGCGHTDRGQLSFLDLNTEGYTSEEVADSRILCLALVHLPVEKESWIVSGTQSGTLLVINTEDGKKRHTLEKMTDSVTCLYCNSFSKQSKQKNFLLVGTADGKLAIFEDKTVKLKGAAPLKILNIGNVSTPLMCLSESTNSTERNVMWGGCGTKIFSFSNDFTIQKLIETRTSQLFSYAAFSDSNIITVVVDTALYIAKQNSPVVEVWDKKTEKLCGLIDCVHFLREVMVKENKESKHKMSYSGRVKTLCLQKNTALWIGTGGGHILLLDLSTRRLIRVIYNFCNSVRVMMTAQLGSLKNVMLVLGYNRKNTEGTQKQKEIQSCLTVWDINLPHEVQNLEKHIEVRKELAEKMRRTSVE
# [1] = molecular target: T2, full-length LRRK2 wild type (Homo sapiens, UniProt Q5S007); assay: LRRK2 WT assay (Assay A, Lanthascreen TR-FRET, 500 uM ATP); details: Assay A (values without *)
# T2 construct: DYDDDDK tagged full-length LRRK2 wild type is used
# T2 sequence (Q5S007 whole entry): as the sequence (Q5S007 whole entry G2019S) above, with S2019G counted along it
# LRRK2, sequence (Q5S007 whole entry): as the sequence (Q5S007 whole entry G2019S) above, with S2019G counted along it
IC50 (full-length LRRK2 G2019S) [nM],IC50 [1] [nM],SMILES,IC50 (LRRK2) [nM]
42,44,"COCC(C)n1c(C#N)cc2cnc(Nc3cn(C4CCC(C)(O)CC4)nc3OC(C)C)nc21 [Example 104, cis-2-((1-(4-hydroxy-4-methylcyclohexyl)-3-isopropoxy-1H-pyrazol-4-yl)amino)-7-((S)-1-methoxypropan-2-yl)-7H-pyrrolo[2,3-d]pyrimidine-6-carbonitrile]",
57,62,"COCC(C)n1c(C#N)cc2cnc(Nc3cn(C4CCC(C)(O)CC4)nc3OC(C)C)nc21 [Example 105, trans-2-((1-(4-hydroxy-4-methylcyclohexyl)-3-isopropoxy-1H-pyrazol-4-yl)amino)-7-((S)-1-methoxypropan-2-yl)-7H-pyrrolo[2,3-d]pyrimidine-6-carbonitrile]",
81,90,"COCC(C)n1c(C#N)cc2cnc(Nc3cn(C4CCC(C)(O)CC4)nc3OC3CC3)nc21 [Example 107, trans-2-((3-cyclopropoxy-1-(4-hydroxy-4-methylcyclohexyl)-1H-pyrazol-4-yl)amino)-7-((S)-1-methoxypropan-2-yl)-7H-pyrrolo[2,3-d]pyrimidine-6-carbonitrile]",
27,27,"COCCn1cc(Nc2ncc3cc(C#N)n([C@H]4COC[C@@H]4C)c3n2)c(OC2CC2)n1 [Example 113, 2-((3-Cyclopropoxy-1-(2-methoxyethyl)-1 H-pyrazol-4-yl)amino)-7-((3R,4R)-4-methyltetrahydrofuran-3-yl)-7H-pyrrolo[2,3-d]pyrimidine-6-carbonitrile]",
222,153,"COCCn1cc(Nc2ncc3cc(C#N)n(C4CCOCC4)c3n2)c(OC2CC2)n1 [Example 122, 2-((3-Cyclopropoxy-1-(2-methoxyethyl)-1 H-pyrazol-4-yl)amino)-7-(tetrahydro-2H-pyran-4-yl)-7H-pyrrolo[2,3-d]pyrimidine-6-carbonitrile]",
104,81,"COCC(C)n1cc(Nc2ncc3cc(C#N)n([C@H]4COC[C@@H]4C)c3n2)c(OC2COC2)n1 (stereo partly drawn) [Example 128, 2-((1-(1-Methoxypropan-2-yl)-3-(oxetan-3-yloxy)-1 H-pyrazol-4-yl)amino)-7-((3R,4R)-4-methyltetrahydrofuran-3-yl)-7H-pyrrolo[2,3-d]pyrimidine-6-carbonitrile]",
11,11,"COC[C@H](C)n1c(C#N)cc2cnc(Nc3cn(CCO)nc3OC3CCOCC3)nc21 [Example 138, (S)-2-((1-(2-hydroxyethyl)-3-((tetrahydro-2H-pyran-4-yl)oxy)-1 H-pyrazol-4-yl)amino)-7-(1-methoxypropan-2-yl)-7H-pyrrolo[2,3-d]pyrimidine-6-carbonitrile]",
20,22,"COC[C@H](C)n1c(C#N)cc2cnc(Nc3cn(CCO)nc3OC3COC3)nc21 [Example 139, (S)-2-((1-(2-hydroxyethyl)-3-(oxetan-3-yloxy)-1 H-pyrazol-4-yl)amino)-7-(1-methoxypropan-2-yl)-7H-pyrrolo[2,3-d]pyrimidine-6-carbonitrile]",
1,2,"COC[C@H](C)n1c(C#N)cc2cnc(Nc3ccc(C(C)(C)O)cc3OC3CC3)nc21 [Example 154, (S)-2-((2-cyclopropoxy-4-(2-hydroxypropan-2-yl)phenyl)amino)-7-(1-methoxypropan-2-yl)-7H-pyrrolo[2,3-d]pyrimidine-6-carbonitrile]",

# Continued, molecule first:
SMILES,IC50 (full-length LRRK2 G2019S) [nM],IC50 [1] [nM],IC50 (LRRK2) [nM]
"CC[C@H]1COC[C@H]1n1c(C#N)cc2cnc(Nc3cn(C)nc3OC(C)C)nc21 (racemic) [Example 72, 7-((cis)-4-ethyltetrahydrofuran-3-yl)-2-((3-isopropoxy-1-methyl-1 H-pyrazol-4-yl)amino)-7H-pyrrolo[2,3-d]pyrimidine-6-carbonitrile]",,,83
"CC[C@@H]1COC[C@H]1n1c(C#N)cc2cnc(Nc3cn(C)nc3OC(C)C)nc21 (racemic) [Example 73, 7-((trans)-4-ethyltetrahydrofuran-3-yl)-2-((3-isopropoxy-1-methyl-1 H-pyrazol-4-yl)amino)-7H-pyrrolo[2,3-d]pyrimidine-6-carbonitrile]",,,11
"CC(C)Oc1nn(C(C)C#N)cc1Nc1ncc2cc(C#N)n([C@@H]3COC[C@@H]3C)c2n1 (single isomer, unassigned) [Example 48, 2-((1-(1-cyanoethyl)-3-isopropoxy-1 H-pyrazol-4-yl)amino)-7-((cis)-4-methyltetrahydrofuran-3-yl)-7H-pyrrolo[2,3-d]pyrimidine-6-carbonitrile]",,,256
"CC(C)Oc1nn(C(C)C#N)cc1Nc1ncc2cc(C#N)n([C@@H]3COC[C@@H]3C)c2n1 (single isomer, unassigned) [Example 49, 2-((1-(1-cyanoethyl)-3-isopropoxy-1 H-pyrazol-4-yl)amino)-7-((cis)-4-methyltetrahydrofuran-3-yl)-7H-pyrrolo[2,3-d]pyrimidine-6-carbonitrile]",,,274
"CC(C)Oc1nn(C(C)C#N)cc1Nc1ncc2cc(C#N)n([C@@H]3COC[C@@H]3C)c2n1 (single isomer, unassigned) [Example 50, 2-((1-(1-cyanoethyl)-3-isopropoxy-1 H-pyrazol-4-yl)amino)-7-((cis)-4-methyltetrahydrofuran-3-yl)-7H-pyrrolo[2,3-d]pyrimidine-6-carbonitrile]",,,7
"CC(C)Oc1nn(C(C)C#N)cc1Nc1ncc2cc(C#N)n([C@@H]3COC[C@@H]3C)c2n1 (single isomer, unassigned) [Example 51, 2-((1-(1-cyanoethyl)-3-isopropoxy-1 H-pyrazol-4-yl)amino)-7-((cis)-4-methyltetrahydrofuran-3-yl)-7H-pyrrolo[2,3-d]pyrimidine-6-carbonitrile]",,,5
"Cn1cc(Nc2ncc3cc(C#N)n(C4CCOC4)c3n2)c(OC2COC2)n1 (single isomer, unassigned) [Example 52, 2-((1-methyl-3-(oxetan-3-yloxy)-1 H-pyrazol-4-yl)amino)-7-(tetrahydrofuran-3-yl)-7H-pyrrolo[2,3-d]pyrimidine-6-carbonitrile]",,,26
"Cn1cc(Nc2ncc3cc(C#N)n(C4CCOC4)c3n2)c(OC2COC2)n1 (single isomer, unassigned) [Example 53, 2-((1-methyl-3-(oxetan-3-yloxy)-1 H-pyrazol-4-yl)amino)-7-(tetrahydrofuran-3-yl)-7H-pyrrolo[2,3-d]pyrimidine-6-carbonitrile]",,,266
"CO[C@H]1COC[C@H]1n1c(C#N)cc2cnc(Nc3cn(C(C)C#N)nc3OC(C)C)nc21 (single isomer, unassigned) [Example 57]",,,27
"Cn1cc(Nc2ncc3cc(C#N)n(C4CCCOC4)c3n2)c(OC2COC2)n1 (single isomer, unassigned) [Example 81, 2-((1-methyl-3-(oxetan-3-yloxy)-1 H-pyrazol-4-yl)amino)-7-(tetrahydro-2H-pyran-3-yl)-7H-pyrrolo[2,3-d]pyrimidine-6-carbonitrile]",,,183
"Cn1cc(Nc2ncc3cc(C#N)n(C4CCCOC4)c3n2)c(OC2COC2)n1 (single isomer, unassigned) [Example 82, 2-((1-methyl-3-(oxetan-3-yloxy)-1 H-pyrazol-4-yl)amino)-7-(tetrahydro-2H-pyran-3-yl)-7H-pyrrolo[2,3-d]pyrimidine-6-carbonitrile]",,,104
"C[C@@H]1COCC[C@H]1n1c(C#N)cc2cnc(Nc3cn(C)nc3OC3COC3)nc21 (single isomer, unassigned) [Example 83, 2-((1-methyl-3-(oxetan-3-yloxy)-1 H-pyrazol-4-yl)amino)-7-((trans)-3-methyltetrahydro-2H-pyran-4-yl)-7H-pyrrolo[2,3-d]pyrimidine-6-carbonitrile]",,,134
"COC[C@H](C)n1c(C#N)cc2cnc(Nc3cn(COC)nc3OC3CC3)nc21 [Example 92, 2-[[3-(Cyclopropoxy)-1-(methoxymethyl)pyrazol-4-yl]amino]-7-[(1S)-2-methoxy-1-methyl-ethyl]pyrrolo[2,3-d]pyrimidine-6-carbonitrile]",4,6,
"COC[C@H](C)n1c(C#N)cc2cnc(Nc3cn(CS(C)(=O)=O)nc3OC3COC3)nc21 [Example 93, 7-[(1S)-2-Methoxy-1-methyl-ethyl]-2-[[1-(methylsulfonylmethyl)-3-(oxetan-3-yloxy)pyrazol-4-yl]amino]pyrrolo[2,3-d]pyrimidine-6-carbonitrile]",4,8,
"COCCn1cc(Nc2ncc3cc(C#N)n([C@@H](C)COC)c3n2)c(OC2CC2)n1 [Example 103, (S)-2-((3-cyclopropoxy-1-(2-methoxyethyl)-1H-pyrazol-4-yl)amino)-7-(1-methoxypropan-2-yl)-7H-pyrrolo[2,3-d]pyrimidine-6-carbonitrile]",31,35,
"COCC(C)n1c(C#N)cc2cnc(Nc3cn(C4CCC(C)(O)CC4)nc3OC3CC3)nc21 [Example 106, cis-2-((3-cyclopropoxy-1-(4-hydroxy-4-methylcyclohexyl)-1H-pyrazol-4-yl)amino)-7-((S)-1-methoxypropan-2-yl)-7H-pyrrolo[2,3-d]pyrimidine-6-carbonitrile]",55,70,
"[2H]C([2H])([2H])n1cc(Nc2ncc3cc(C#N)n([C@@H](C)COC)c3n2)c(OC2CC(O)C2(C)C)n1 (stereo partly drawn) [Example 108, 2-((3-(3-hydroxy-2,2-dimethylcyclobutoxy)-1-(methyl-d3)-1H-pyrazol-4-yl)amino)-7-((S)-1-methoxypropan-2-yl)-7H-pyrrolo[2,3-d]pyrimidine-6-carbonitrile]",10,10,
